Several values for one entry are separate records, joined by “and”; a condition that tells them apart may be missing. Identical values can stand only once. Like-named read-outs stand apart in the source and are kept apart here.
Tests used:
Drosophila OR10a = biological target: T1, Drosophila OR10a (Drosophila melanogaster, UniProt Q9VYZ1); assay: Calcium ion fluorescence (GCaMP6) assay, OR10a stable HEK293 cell line; type: cell-based; conditions: for OR10a response (VUAA1-normalized) at 1 μM / OR10a response (VUAA1-normalized) at 10 μM / OR10a response (VUAA1-normalized) at 100 μM: OR10a cell line
T1 construct: expressed in transfected cells
T1 sequence (Q9VYZ1 1-406): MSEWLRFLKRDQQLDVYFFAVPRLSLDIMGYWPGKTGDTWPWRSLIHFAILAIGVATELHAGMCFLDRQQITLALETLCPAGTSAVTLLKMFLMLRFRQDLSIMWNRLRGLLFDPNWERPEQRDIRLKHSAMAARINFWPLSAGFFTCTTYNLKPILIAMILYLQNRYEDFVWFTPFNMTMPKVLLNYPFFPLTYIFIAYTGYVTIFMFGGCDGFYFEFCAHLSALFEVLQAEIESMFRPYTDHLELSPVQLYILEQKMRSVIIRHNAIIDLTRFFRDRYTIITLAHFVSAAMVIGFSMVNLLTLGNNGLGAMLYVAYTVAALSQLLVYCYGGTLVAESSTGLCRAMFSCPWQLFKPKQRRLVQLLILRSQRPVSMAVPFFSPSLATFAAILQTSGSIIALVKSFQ
T1 sequence (Q9VNB5 1-486 partner): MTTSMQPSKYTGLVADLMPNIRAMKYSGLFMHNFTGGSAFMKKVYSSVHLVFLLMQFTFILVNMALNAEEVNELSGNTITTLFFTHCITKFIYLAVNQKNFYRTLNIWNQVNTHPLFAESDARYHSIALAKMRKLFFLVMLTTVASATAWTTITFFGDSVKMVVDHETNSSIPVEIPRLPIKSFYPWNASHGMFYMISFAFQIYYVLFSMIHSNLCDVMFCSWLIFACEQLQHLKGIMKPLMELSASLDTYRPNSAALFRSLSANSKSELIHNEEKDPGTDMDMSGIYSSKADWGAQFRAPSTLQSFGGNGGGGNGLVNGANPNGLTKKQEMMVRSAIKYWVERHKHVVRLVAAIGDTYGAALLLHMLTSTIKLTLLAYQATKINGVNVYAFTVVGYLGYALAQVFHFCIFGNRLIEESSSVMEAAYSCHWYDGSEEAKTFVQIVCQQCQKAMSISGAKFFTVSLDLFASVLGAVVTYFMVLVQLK
In short: (§1)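 Responses are VUAA1-normalized ΔF: each VOC-evoked calcium signal, (FMAX−F0)/F0 over 30 s after injection, divided by the same line's mean 50 µM VUAA1 response. Cells were doxycycline-induced HEK293 with GCaMP6 and the cognate Drosophila OR, in HEPES buffer pH 7.3; ligands tested 0.01–100 μM.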

Drosophila OR13a = biological target: T2, Drosophila OR13a (Drosophila melanogaster, UniProt Q9VXL0); assay: Calcium ion fluorescence (GCaMP6) assay, OR13a stable HEK293 cell line; type: cell-based; conditions: for OR13a response (VUAA1-normalized) at 1 μM / OR13a response (VUAA1-normalized) at 10 μM / OR13a response (VUAA1-normalized) at 100 μM: OR13a cell line
T2 construct: expressed in transfected cells
T2 sequence (Q9VXL0 1-418): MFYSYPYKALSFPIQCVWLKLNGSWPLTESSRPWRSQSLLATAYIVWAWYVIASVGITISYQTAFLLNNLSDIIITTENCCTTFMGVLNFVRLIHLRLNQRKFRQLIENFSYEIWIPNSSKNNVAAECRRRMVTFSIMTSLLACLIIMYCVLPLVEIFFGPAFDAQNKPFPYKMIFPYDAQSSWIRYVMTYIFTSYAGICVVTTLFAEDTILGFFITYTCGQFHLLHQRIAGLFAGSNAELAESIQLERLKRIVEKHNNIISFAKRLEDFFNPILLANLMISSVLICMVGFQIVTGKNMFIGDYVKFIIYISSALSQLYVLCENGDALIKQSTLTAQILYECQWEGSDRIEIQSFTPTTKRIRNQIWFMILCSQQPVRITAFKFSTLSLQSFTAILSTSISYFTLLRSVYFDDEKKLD
T2 sequence (Q9VNB5 1-486 partner): T1 sequence (Q9VNB5 1-486 partner)
In short: as §1

[1] = HEK293, read-out: OR10a Average response (VUAA1-normalized), 1 μM VOC, 50 μM VUAA1 = 1, responses not exceeding 0.05 considered 0
[2] = HEK293, read-out: OR10a Average response (VUAA1-normalized), 10 μM VOC, 50 μM VUAA1 = 1, responses not exceeding 0.05 considered 0
[3] = HEK293, read-out: OR10a Average response (VUAA1-normalized), 100 μM VOC, 50 μM VUAA1 = 1, responses not exceeding 0.05 considered 0
[4] = HEK293, read-out: OR10a response (VUAA1-normalized response), VOC concentration 1 μM
[5] = HEK293, read-out: OR10a response (VUAA1-normalized response), VOC concentration 10 μM
[6] = HEK293, read-out: OR10a response (VUAA1-normalized response), VOC concentration 100 μM
[7] = concentration 1, normalized fluorescence change, values below 0.05 threshold given as 0
[8] = concentration 10, normalized fluorescence change, values below 0.05 threshold given as 0
[9] = concentration 100, normalized fluorescence change, values below 0.05 threshold given as 0
[10] = HEK293, read-out: OR13a Average response (VUAA1-normalized), 1 μM VOC, 50 μM VUAA1 = 1, responses not exceeding 0.05 considered 0
[11] = HEK293, read-out: OR13a Average response (VUAA1-normalized), 10 μM VOC, 50 μM VUAA1 = 1, responses not exceeding 0.05 considered 0
[12] = HEK293, read-out: OR13a Average response (VUAA1-normalized), 100 μM VOC, 50 μM VUAA1 = 1, responses not exceeding 0.05 considered 0
[13] = HEK293, read-out: OR13a response (VUAA1-normalized response), VOC concentration 1 μM
[14] = HEK293, read-out: OR13a response (VUAA1-normalized response), VOC concentration 10 μM
[15] = HEK293, read-out: OR13a response (VUAA1-normalized response), VOC concentration 100 μM
[16] = HEK293, 1 μM VOC, 50 μM VUAA1 = 1, responses not exceeding 0.05 considered 0, read-out: OR10a Average response (VUAA1-normalized)
[17] = HEK293, 10 μM VOC, 50 μM VUAA1 = 1, responses not exceeding 0.05 considered 0, read-out: OR10a Average response (VUAA1-normalized)
[18] = HEK293, 100 μM VOC, 50 μM VUAA1 = 1, responses not exceeding 0.05 considered 0, read-out: OR10a Average response (VUAA1-normalized)
[19] = 1 μM VOC, 50 μM VUAA1 = 1, responses not exceeding 0.05 considered 0
[20] = 10 μM VOC, 50 μM VUAA1 = 1, responses not exceeding 0.05 considered 0
[21] = 100 μM VOC, 50 μM VUAA1 = 1, responses not exceeding 0.05 considered 0
[22] = ligand concentration 1 (unit not given), 0.05 threshold, values below shown as 0
[23] = ligand concentration 10 (unit not given), 0.05 threshold, values below shown as 0
[24] = ligand concentration 100 (unit not given), 0.05 threshold, values below shown as 0
[25] = ligand concentration 1 (unit not given), threshold 0.05, below shown as 0
[26] = ligand concentration 10 (unit not given), threshold 0.05, below shown as 0
[27] = ligand concentration 100 (unit not given), threshold 0.05, below shown as 0

Compound	activation at 1 µM (Drosophila OR10a; [4])	activation at 10 µM (Drosophila OR10a; [5])	activation at 100 µM (Drosophila OR10a; [6])	DF norm AVERAGE OR10a (Drosophila OR10a; [8])	activation at 1 µM (Drosophila OR13a; [10])	activation at 10 µM (Drosophila OR13a; [11])	activation at 100 µM (Drosophila OR13a; [12])	activation at 1 µM (Drosophila OR13a; [13])	activation at 10 µM (Drosophila OR13a; [14])	activation at 100 µM (Drosophila OR13a; [15])	DF norm AVERAGE OR13a (Drosophila OR13a; [7])	DF norm AVERAGE OR13a (Drosophila OR13a; [8])	DF norm AVERAGE OR13a (Drosophila OR13a; [9])	DF norm AVERAGE OR10a (Drosophila OR10a)	activation at 1 µM (Drosophila OR10a; [16])	activation at 10 µM (Drosophila OR10a; [17])	activation at 100 µM (Drosophila OR10a; [18])	also measured
C=C1CC[C@H]2O[C@]2(C)CC[C@@H]2[C@@H]1CC2(C)C [(-)-caryophyllene oxide]	0%	0%	0%	0	0%	0%	0%	0%	0%	0%	0	0	0	–	–	–	–	activation at 1 µM (Drosophila OR10a; [1]): 0%; activation at 10 µM (Drosophila OR10a; [2]): 0%; activation at 100 µM (Drosophila OR10a; [3]): 0%; DF norm AVERAGE OR10a (Drosophila OR10a; [7]): 0; DF norm AVERAGE OR10a (Drosophila OR10a; [9]): 0
CCCCCC(O)CC (stereo not shown) [3-octanol]	0%	6%	6%	0.05884	0%	0%	12%	0%	0%	12%	0	0	0.1167	0	0%	6%	6%	DF norm AVERAGE OR10a (Drosophila OR10a; [9]): 0.05921
CCCCCCCCC(CO)CCCCCC (stereo not shown) [2-hexyl-1-decanol]	15%	11%	19%	–	7%	0%	0%	7%	0%	0%	0.07079	0	0	0.1461 and 0.1055 and 0.1938	15%	11%	19%	–
(-)-alpha-cedrene	–	–	–	0.05923	–	–	–	–	–	–	0	0	0	0	–	–	–	OR10a Average response (VUAA1-normalized) (Drosophila OR10a; [19]): 0.02; OR10a Average response (VUAA1-normalized) (Drosophila OR10a; [20]): 0.06; OR10a Average response (VUAA1-normalized) (Drosophila OR10a; [21]): 0.00; OR10a response (VUAA1-normalized response) (Drosophila OR10a; VOC concentration 1 μM): 0.00; OR10a response (VUAA1-normalized response) (Drosophila OR10a; VOC concentration 10 μM): 0.06; OR10a response (VUAA1-normalized response) (Drosophila OR10a; VOC concentration 100 μM): 0.00; OR13a Average response (VUAA1-normalized) (Drosophila OR13a; [19]): 0.00; OR13a Average response (VUAA1-normalized) (Drosophila OR13a; [20]): 0.00; OR13a Average response (VUAA1-normalized) (Drosophila OR13a; [21]): 0.00; OR13a response (VUAA1-normalized response) (Drosophila OR13a; VOC concentration 1 μM): 0.00; OR13a response (VUAA1-normalized response) (Drosophila OR13a; VOC concentration 10 μM): 0.00; OR13a response (VUAA1-normalized response) (Drosophila OR13a; VOC concentration 100 μM): 0.00
CC1=CCC23CC1C(C)(C)C2CCC3C (stereo not drawn) [α-funebrene]	–	–	–	–	0%	0%	0%	–	–	–	–	–	–	–	0%	0%	2.42%	OR10a response (VUAA1-normalized) at 1 μM (Drosophila OR10a; VOC concentration 1 μM): 0.00; OR10a response (VUAA1-normalized) at 10 μM (Drosophila OR10a; VOC concentration 10 μM): 0.00; OR10a response (VUAA1-normalized) at 100 μM (Drosophila OR10a; VOC concentration 100 μM): 0.00; DF norm AVERAGE OR10a (Drosophila OR10a; [22]): 0; DF norm AVERAGE OR10a (Drosophila OR10a; [23]): 0; DF norm AVERAGE OR10a (Drosophila OR10a; [24]): 0; OR13a response (VUAA1-normalized) at 1 μM (Drosophila OR13a; VOC concentration 1 μM): 0.00; OR13a response (VUAA1-normalized) at 10 μM (Drosophila OR13a; VOC concentration 10 μM): 0.00; OR13a response (VUAA1-normalized) at 100 μM (Drosophila OR13a; VOC concentration 100 μM): 0.00; DF norm AVERAGE OR13a (Drosophila OR13a; [22]): 0; DF norm AVERAGE OR13a (Drosophila OR13a; [23]): 0; DF norm AVERAGE OR13a (Drosophila OR13a; [24]): 0
CCCCCC(C)=O [2-heptanone]	0%	0%	0%	–	0%	2.36%	1.75%	0%	0%	0%	0	0	0	0	3%	4%	4%	–
C=C1CC/C=C(\C)CC[C@@H]2[C@@H]1CC2(C)C [(-)-trans-caryophyllene]	14%	20%	6.61%	–	0%	11%	10%	0%	11%	10%	0	0.1145	0.105	–	14%	20%	6.61%	–
C=C1CCC2(C(C)C)CC12 (stereo not shown) [sabinene]	–	–	–	–	0%	0%	0%	–	–	–	–	–	–	–	–	–	–	activation at 1 µM (Drosophila OR10a; [1]): 0%; activation at 10 µM (Drosophila OR10a; [2]): 0%; activation at 100 µM (Drosophila OR10a; [3]): 3.23%; OR10a response (VUAA1-normalized) at 1 μM (Drosophila OR10a; VOC concentration 1 μM): 0.00; OR10a response (VUAA1-normalized) at 10 μM (Drosophila OR10a; VOC concentration 10 μM): 0.00; OR10a response (VUAA1-normalized) at 100 μM (Drosophila OR10a; VOC concentration 100 μM): 0.00; DF norm AVERAGE OR10a (Drosophila OR10a; [25]): 0; DF norm AVERAGE OR10a (Drosophila OR10a; [26]): 0; DF norm AVERAGE OR10a (Drosophila OR10a; [27]): 0; OR13a response (VUAA1-normalized) at 1 μM (Drosophila OR13a; VOC concentration 1 μM): 0.00; OR13a response (VUAA1-normalized) at 10 μM (Drosophila OR13a; VOC concentration 10 μM): 0.00; OR13a response (VUAA1-normalized) at 100 μM (Drosophila OR13a; VOC concentration 100 μM): 0.00; DF norm AVERAGE OR13a (Drosophila OR13a; [25]): 0; DF norm AVERAGE OR13a (Drosophila OR13a; [26]): 0; DF norm AVERAGE OR13a (Drosophila OR13a; [27]): 0
